Reference: US8835652B2, “Delta crystalline form of the arginine salt of perindopril, a process for its preparation, and pharmaceutical compositions containing it” (Les Laboratoires Servier, priority 2012, dated 2014)
Structures can show the parent of a compound that is named as a salt.

Experiment: Thermal stability at 110° C. in an open flask (HPLC purity)
Type: physicochemical
Procedure: The thermal stability of the delta form at 110° C. in an open flask was compared to that of forms from the prior art.

[1] = 76 hours at 110° C., open flask
[2] = t = 0, before heating (baseline of the thermal stability test)

With `CCC[C@H](N[C@@H](C)C(=O)N1[C@H](C(=O)O)C[C@@H]2CCCC[C@@H]21)C(=O)OCC.N=C(N)NCCC[C@H](N)C(=O)O` [Form obtained according to the process of SI 23001] the “HPLC purity (%)” value [1] was 86.9% and the “HPLC purity (%)” value [2] was 99.1%.

For `CCC[C@H](N[C@@H](C)C(=O)N1[C@H](C(=O)O)C[C@@H]2CCCC[C@@H]21)C(=O)OCC` [perindopril L-arginine salt], the “Thermal stability compared to the other known forms” value (110° C., open flask) was “improved thermal stability”, the “HPLC purity (%)” value [1] was 99.5% and the “HPLC purity (%)” value [2] was 99.7%.

For `CCC[C@H](N[C@@H](C)C(=O)N1[C@H](C(=O)O)C[C@@H]2CCCC[C@@H]21)C(=O)OCC.N=C(N)NCCC[C@H](N)C(=O)O` [α form according to EP 1 989 182], the “HPLC purity (%)” value [1] was 98.8% and the “HPLC purity (%)” value [2] was 99.8%.

With `CCC[C@H](N[C@@H](C)C(=O)N1[C@H](C(=O)O)C[C@@H]2CCCC[C@@H]21)C(=O)OCC.N=C(N)NCCC[C@H](N)C(=O)O` [β form according to EP 2 016 051] the “HPLC purity (%)” value [1] was 98.3% and the “HPLC purity (%)” value [2] was 99.6%.

For `CCC[C@H](N[C@@H](C)C(=O)N1[C@H](C(=O)O)C[C@@H]2CCCC[C@@H]21)C(=O)OCC.N=C(N)NCCC[C@H](N)C(=O)O` [γ form according to WO 2009/157018], the “HPLC purity (%)” value [1] was 93.4% and the “HPLC purity (%)” value [2] was 99.7%.
